We go through 3 compounds from patent publication US8993542B2, “Methods of treating viral infections” (priority 2008, dated 2015).

The subject of one test is HIV-1. To be noted: monotherapy in naïve patients (Louie et al.); cited from earlier work.
The test system of another test is HIV-1IIIB. Put plainly: Two-drug combination antiviral assay in CEM cells (CPE), MacSynergy II. The test is classed as cell-based. To be noted: in combination with CMX157, CEM-SS cells, 95% confidence.
In the next test the test system is HIV. In words: microbe, parasite or virus in culture. It is filed as cell-based.
The next test deals with HIV-1Ba-L. Here is the method:
The anti-HIV-1 activity of CMX157 is evaluated in two-drug combination studies with twenty-four different FDA-approved anti-HIV inhibitors. Each two-drug combination is tested three times in CEM T-lymphocytic cells or MAGI-CCR5 cells acutely infected with the laboratory-adapted strain HIV-1IIIB or HIV-1Ba-L, respectively. Viral growth/inhibition is evaluated by measuring virus-induced cytopathic effects (CPE) in CEM cells or by β-galactosidase reporter gene induction in MAGI-CCR5 cells at the experimental endpoint. The cytotoxicity of each two-drug combination is also evaluated in parallel with the antiviral evaluations. The concentrations of CMX157 used in these evaluations are selected in order to test a broad range of concentrations and to provide as complete a dose response curve as possible under the limitations of eight total concentrations. […] The “positive antagonism control” of d4T (stavudine) in combination with RBV was tested in parallel with each of the assays that were performed. Analysis of drug interactions for each of the two-drug combinations is performed using the Prichard and Shipman MacSynergy II three-dimensional model for statistical evaluation of combination assays.

Where [1] appears, read: in combination with CMX157, MAGI-CCR5 cells, 95% confidence.

With `CC(C)OC(=O)OCOP(=O)(CO[C@H](C)Cn1cnc2c(N)ncnc21)OCOC(=O)OC(C)C.O=C(O)/C=C/C(=O)O` [TDF, 2,4,6,8-Tetraoxa-5-phosphanonanedioic acid, 5-[[(1R)-2-(6-amino-9H-purin-9-yl)-1-methylethoxy]methyl]-, bis(1-methylethyl) ester, 5-oxide, (2E)-2-butenedioate (1:1)], the viral load response in the test on HIV-1 is −1.5 log.
Take `OC[C@@H]1CC[C@H](n2cnc3c(O)ncnc32)O1` [ddI, 2′,3′-dideoxyinosine]: the “Antagonism Volume, Result 1” value in the test on HIV-1IIIB is listed as −1.01 nM^2 %, μM^2 % or nMμM %. Moreover, the “Synergy Volume, Result 1” value in the test with HIV-1IIIB is 3.38 nM^2 %, μM^2 % or nMμM %. In addition, the IC50 (in general, the concentration needed to halve the response being measured) with HIV (Human immunodeficiency virus 1, PANEL 1, WT) was found to be 5.54 µM; with HIV (Human immunodeficiency virus 1, PANEL 2, WT), 5.57 µM; with HIV (Human immunodeficiency virus 1, PANEL 3, 6 TAMs, no 184) it was 8.76 µM; in the test with HIV (Human immunodeficiency virus 1, PANEL 6, 6 TAMs + 184), 11.3 µM; in the test with HIV (Human immunodeficiency virus 1, PANEL 7, 184V) it was 7.57 µM; in the test with HIV (Human immunodeficiency virus 1, PANEL 9, 69ins, no 184) it was 22.2 µM. Besides, the IC50 turned out to be 24.3 µM in the test with HIV (Human immunodeficiency virus 1, PANEL 12, 69ins + 184); 9.17 µM with HIV (Human immunodeficiency virus 1, PANEL 14, 65R, no 184); 14.3 µM in the test on HIV (Human immunodeficiency virus 1, PANEL 15, 65R + 184V); 8.94 µM with HIV (Human immunodeficiency virus 1, PANEL 17, L74V); 11.1 µM in the test on HIV (Human immunodeficiency virus 1, PANEL 19, L74V + M184V); 63.2 µM in the test with HIV (Human immunodeficiency virus 1, PANEL 26, 151M, no 184). Moreover, the IC50 in the test with HIV (Human immunodeficiency virus 1, PANEL 28, 151M + 184) stood at 58 µM; with HIV (Human immunodeficiency virus 1, PANEL 29, L74V − SDM), 8.14 µM; with HIV (Human immunodeficiency virus 1, PANEL 30, M184V − SDM), 6.76 µM; with HIV (Human immunodeficiency virus 1, PANEL 31, K65R − SDM) it was 11 µM; in the test with HIV (Human immunodeficiency virus 1, PANEL 33, T215Y), 6.29 µM; in the test with HIV (Human immunodeficiency virus 1, PANEL 34, T215Y + M184V), 7.88 µM. For the same compound, the IC50 in the test with HIV (Human immunodeficiency virus 1, PANEL 35, M41L + T215Y) was 6.29 µM; in the test with HIV (Human immunodeficiency virus 1, PANEL 37, M41L + T215Y + M184V) it was 10.1 µM; in the test on HIV (Human immunodeficiency virus 1, PANEL 38, M41L + L210W + T215Y), 7.5 µM; with HIV (Human immunodeficiency virus 1, PANEL 39, M41L + L210W + T215Y) it was 5.9 µM; in the test with HIV (Human immunodeficiency virus 1, PANEL 40, M41L + L210W + T215Y + M184V) it was 8.18 µM; with HIV (Human immunodeficiency virus 1, PANEL 41, M41L + L210W + T215Y + M184V), 8.64 µM. Also, the IC50 was determined as 6.57 µM with HIV (Human immunodeficiency virus 1, PANEL 42, D67N + K70R); 8.65 µM in the test with HIV (Human immunodeficiency virus 1, PANEL 44, D67N + K70R + T215F + K219E + M184V); 5.51 µM in the test with HIV (Human immunodeficiency virus 1, PANEL 45, L210W + T215Y); 7.73 µM with HIV (Human immunodeficiency virus 1, PANEL 46, D67N + K70E); 7.25 µM in the test on HIV (Human immunodeficiency virus 1, PANEL 47, D67N + K70E + M184V); 9.91 µM with HIV (Human immunodeficiency virus 1, PANEL 48, K70E + M184V). For the same compound, the “IC50 Fold Change” value in the test with HIV (PANEL 1, WT) is 1.01; with HIV (PANEL 2, WT), 1.01; in the test with HIV (PANEL 3, 6 TAMs, no 184), 1.59; in the test with HIV (PANEL 6, 6 TAMs + 184), 2.06; with HIV (PANEL 7, 184V) it was 1.38; in the test with HIV (PANEL 9, 69ins, no 184), 4.04. The “IC50 Fold Change” value in the test on HIV (PANEL 12, 69ins + 184) amounted to 4.43; in the test on HIV (PANEL 14, 65R, no 184) it was 1.67; in the test with HIV (PANEL 15, 65R + 184V), 2.61; in the test with HIV (PANEL 17, L74V), 1.63; in the test with HIV (PANEL 19, L74V + M184V), 2.01; in the test on HIV (PANEL 26, 151M, no 184), 12.00. The “IC50 Fold Change” value in the test on HIV (PANEL 28, 151M + 184) was determined as 11.00; with HIV (PANEL 29, L74V − SDM), 1.48; in the test with HIV (PANEL 30, M184V − SDM), 1.23; in the test with HIV (PANEL 31, K65R − SDM), 2.00; with HIV (PANEL 33, T215Y), 1.14; in the test on HIV (PANEL 34, T215Y + M184V), 1.43. Also, the “IC50 Fold Change” value in the test on HIV (PANEL 35, M41L + T215Y) was determined as 1.14; with HIV (PANEL 37, M41L + T215Y + M184V), 1.84; in the test on HIV (PANEL 38, M41L + L210W + T215Y) it was 1.36; with HIV (PANEL 39, M41L + L210W + T215Y), 1.07; with HIV (PANEL 40, M41L + L210W + T215Y + M184V) it was 1.49; with HIV (PANEL 41, M41L + L210W + T215Y + M184V) it was 1.57. Further, the “IC50 Fold Change” value in the test with HIV (PANEL 42, D67N + K70R) is recorded as 1.19; in the test with HIV (PANEL 44, D67N + K70R + T215F + K219E + M184V) it was 1.57; in the test with HIV (PANEL 45, L210W + T215Y), 1.00; in the test with HIV (PANEL 46, D67N + K70E), 1.41; with HIV (PANEL 47, D67N + K70E + M184V), 1.32; in the test on HIV (PANEL 48, K70E + M184V), 1.80.
Regarding maraviroc [Maraviroc (MVC)], in the test on HIV-1Ba-L (setting [1]), the “Antagonism Volume, Result 1” value is −3.82 nM^2 %, μM^2 % or nMμM %; the “Antagonism Volume, Result 2” value was −3.12 nM^2 %, μM^2 % or nMμM %; the “Antagonism Volume, Result 3” value is listed as 0 nM^2 %, μM^2 % or nMμM %; the “Mean Antagonism Volume (n = 3)” value is given as −2.31 nM^2 %, μM^2 % or nMμM %. In the test on HIV-1Ba-L (setting [1]), the “Mean Synergy Volume (n = 3)” value is reported as 85.3 nM^2 %, μM^2 % or nMμM %; the “Synergy Volume, Result 1” value is 145 nM^2 %, μM^2 % or nMμM %; the “Synergy Volume, Result 2” value is recorded as 14.1 nM^2 %, μM^2 % or nMμM %; the “Synergy Volume, Result 3” value was 96.6 nM^2 %, μM^2 % or nMμM %. In addition, in the test with HIV-1Ba-L (two-drug combination (with CMX157; control d4T/RBV), MAGI-CCR5 cells), the “Interpretation of Antiviral Results (MacSynergy)” value is on record as “slightly synergistic”.
